Reference: PMC6151525, “Investigation of the N-Terminus Amino Function of Arg10-Teixobactin” (Molecules : A Journal of Synthetic Chemistry and Natural …, 2017)
Like-named read-outs stand apart in the source and are kept apart here.

What was measured:
[1] = system: Escherichia coli ATCC 25922; format: cell-based; settings: ATCC 25922, 24 h
Experimental: (§1) After the purification and characterization of the new analogs by MALDI-TOF, their antimicrobial activity was tested against two gram-positive bacteria strains, Staphylococcus aureus and Bacillo subtilis, as well as two gram-negative strains, namely Escherichia coli and Pseudomonas aeruginosa (Table 1). […] They were then diluted to reach 512 μg/mL, the highest concentration tested, followed by two-fold serial dilution. […] The MIC was determined using the broth micro dilution method, as described by the Clinical and Laboratory Standards Institute (CLSI) guidelines, using two gram-positive and two gram-negative bacteria strains (Staphylococcus aureus ATCC 29213, Bacillus subtilis ATCC 6051, Escherichia coli ATCC 25922, Pseudomonas aeruginosa ATCC 27853). First, the bacterial strains were sub-cultured onto Mueller Hinton agar and incubated at 37 °C for 24 h before use in the experiments. Stock solutions at 6 mg/mL in 10% DMSO were prepared for analogs 1–4 and 60% DMSO for analogs 5, 6, and 8. Second, two-fold serial dilutions of each drug/compound were made in cation-adjusted Mueller Hinton broth (CAMHB) in a 96-well microtiter plate. The bacterial inoculum was prepared in distilled water, matched to a 0.5 McFarland standard, and added to make a final volume of 200 µL in each microliter well. The plates were incubated for 24 h at 37 °C under aerobic conditions. The MIC was then recorded as the lowest concentration at which no visible growth occurred. Standard drug, media, and bacterial growth control wells were included in each plate. […] The assay was performed in triplicate to confirm the results.

[2] = system: Staphylococcus aureus ATCC 29213; format: cell-based; settings: ATCC 29213, 24 h
Experimental: as §1

[3] = system: Bacillus subtilis ATCC 6051; format: cell-based; settings: ATCC 6051, 24 h
Experimental: as §1

[4] = system: Pseudomonas aeruginosa ATCC 27853; assay: MIC, broth microdilution (CLSI); format: cell-based; settings: Gram−, CAMHB, 24 h at 37 °C, two-fold dilutions from 512 µg/mL, triplicate
Experimental: After the purification and characterization of the new analogs by MALDI-TOF, their antimicrobial activity was tested against two gram-positive bacteria strains, Staphylococcus aureus and Bacillo subtilis, as well as two gram-negative strains, namely Escherichia coli and Pseudomonas aeruginosa (Table 1). […] They were then diluted to reach 512 μg/mL, the highest concentration tested, followed by two-fold serial dilution. […] The MIC was determined using the broth micro dilution method, as described by the Clinical and Laboratory Standards Institute (CLSI) guidelines, using two gram-positive and two gram-negative bacteria strains (Staphylococcus aureus ATCC 29213, Bacillus subtilis ATCC 6051, Escherichia coli ATCC 25922, Pseudomonas aeruginosa ATCC 27853). First, the bacterial strains were sub-cultured onto Mueller Hinton agar and incubated at 37 °C for 24 h before use in the experiments. Stock solutions at 6 mg/mL in 10% DMSO were prepared for analogs 1–4 and 60% DMSO for analogs 5, 6, and 8. Second, two-fold serial dilutions of each drug/compound were made in cation-adjusted Mueller Hinton broth (CAMHB) in a 96-well microtiter plate. The bacterial inoculum was prepared in distilled water, matched to a 0.5 McFarland standard, and added to make a final volume of 200 µL in each microliter well. […] The MIC was then recorded as the lowest concentration at which no visible growth occurred. […]

[5] = format: physicochemical
Experimental: The most hydrophobic analogs, 5, 6, and 8, presented several difficulties regarding purification. […] Nevertheless, by washing the solid obtained several times with 30% acetonitrile in water, impurities from the cyclization were removed, as were the protecting groups, and the decanoyl derivative was obtained in good purity (Figure S11). The mixture of compounds 5 and 6 was also a challenge with respect to solubilization. In this case, the addition first of 100 μL of TFA and then 7 mL of acetonitrile, followed by sonication for 15 min, yielded a clear solution. Then, 3 mL of water was added slowly and no precipitation of the compounds was observed. This solution was injected into the semi-preparative HPLC, and the two analogs were separated efficiently.
After the purification and characterization of the new analogs by MALDI-TOF, their antimicrobial activity was tested against two gram-positive bacteria strains, Staphylococcus aureus and Bacillo subtilis, as well as two gram-negative strains, namely Escherichia coli and Pseudomonas aeruginosa (Table 1). […] They were then diluted to reach 512 μg/mL, the highest concentration tested, followed by two-fold serial dilution.

[6] = system: Bacillus subtilis ATCC 6051; settings: Gram+; natural teixobactin, reference line of Table 1; cited from earlier work
Text: Table 1 Minimum Inhibitory Concentration (MIC) (µg/mL) for teixobactin analogs (1–6, 8–10). | column: Gram+ / B. subtilis ATCC 6051

[7] = system: Staphylococcus aureus ATCC 29213; settings: Gram+; natural teixobactin, reference line of Table 1; cited from earlier work
Text: Table 1 Minimum Inhibitory Concentration (MIC) (µg/mL) for teixobactin analogs (1–6, 8–10). | column: Gram+ / S. aureus ATCC 29213

[8] = system: Pseudomonas aeruginosa ATCC 27853; settings: Gram−; natural teixobactin, reference line of Table 1; cited from earlier work
Text: Table 1 Minimum Inhibitory Concentration (MIC) (µg/mL) for teixobactin analogs (1–6, 8–10). | column: Gram− / P. aerug ATCC 27853

[9] = system: Escherichia coli ATCC 25922; settings: Gram−; natural teixobactin, reference line of Table 1; cited from earlier work
Text: Table 1 Minimum Inhibitory Concentration (MIC) (µg/mL) for teixobactin analogs (1–6, 8–10). | column: Gram− / E. coli ATCC 25922

Compound | Minimum Inhibitory Concentration (MIC) E. coli ATCC 25922 [1] | Minimum Inhibitory Concentration (MIC) S. aureus ATCC 29213 [2] | Minimum Inhibitory Concentration (MIC) B. subtilis ATCC 6051 [3] | solubility in water [5] | further results
CC[C@H](C)[C@H](NC(=O)[C@@H](Cc1ccccc1)NC)C(=O)N[C@@H](CO)C(=O)N[C@H](CCC(N)=O)C(=O)N[C@@H](C(=O)N[C@H](C(=O)N[C@@H](CO)C(=O)N[C@H]1C(=O)N[C@@H](C)C(=O)N[C@@H](CCCNC(=N)N)C(=O)N[C@@H]([C@@H](C)CC)C(=O)O[C@H]1C)[C@@H](C)CC)[C@@H](C)CC [compound 1, N-Me-D-Phe-Arg10-teixobactin] | 64 µg/mL | 2 µg/mL | 0.5 µg/mL | – | Minimum Inhibitory Concentration (MIC) P. aerug ATCC 27853 [4]: NI ^1
CC[C@H](C)[C@H](NC(=O)[C@H](N)Cc1ccccc1)C(=O)N[C@@H](CO)C(=O)N[C@H](CCC(N)=O)C(=O)N[C@@H](C(=O)N[C@H](C(=O)N[C@@H](CO)C(=O)N[C@H]1C(=O)N[C@@H](C)C(=O)N[C@@H](CCCNC(=N)N)C(=O)N[C@@H]([C@@H](C)CC)C(=O)O[C@H]1C)[C@@H](C)CC)[C@@H](C)CC [compound 2, D-Phe-Arg10-teixobactin] | 32 µg/mL | 2 µg/mL | 1 µg/mL | – | –
CC[C@H](C)[C@H](NC(=O)[C@@H](Cc1ccccc1)N(C)C)C(=O)N[C@@H](CO)C(=O)N[C@H](CCC(N)=O)C(=O)N[C@@H](C(=O)N[C@H](C(=O)N[C@@H](CO)C(=O)N[C@H]1C(=O)N[C@@H](C)C(=O)N[C@@H](CCCNC(=N)N)C(=O)N[C@@H]([C@@H](C)CC)C(=O)O[C@H]1C)[C@@H](C)CC)[C@@H](C)CC [compound 3, N-Me2-D-Phe-Arg10-teixobactin] | 128 µg/mL | 16 µg/mL | 2 µg/mL | – | –
CCCCCCCCCCN[C@H](Cc1ccccc1)C(=O)N[C@H](C(=O)N[C@@H](CO)C(=O)N[C@H](CCC(N)=O)C(=O)N[C@@H](C(=O)N[C@H](C(=O)N[C@@H](CO)C(=O)N[C@H]1C(=O)N[C@@H](C)C(=O)N[C@@H](CCCNC(=N)N)C(=O)N[C@@H]([C@@H](C)CC)C(=O)O[C@H]1C)[C@@H](C)CC)[C@@H](C)CC)[C@@H](C)CC [compound 5, N-De-D-Phe-Arg10-teixobactin] | – | – | 128 µg/mL | poor solubility in water | –
CCCCCCCCCCN(CCCCCCCCCC)[C@H](Cc1ccccc1)C(=O)N[C@H](C(=O)N[C@@H](CO)C(=O)N[C@H](CCC(N)=O)C(=O)N[C@@H](C(=O)N[C@H](C(=O)N[C@@H](CO)C(=O)N[C@H]1C(=O)N[C@@H](C)C(=O)N[C@@H](CCCNC(=N)N)C(=O)N[C@@H]([C@@H](C)CC)C(=O)O[C@H]1C)[C@@H](C)CC)[C@@H](C)CC)[C@@H](C)CC [compound 6, N-De2-D-Phe-Arg10-teixobactin] | – | – | 128 µg/mL | poor solubility in water | –
CC[C@H](C)[C@H](NC(=O)[C@@H](Cc1ccccc1)N=C(N(C)C)N(C)C)C(=O)N[C@@H](CO)C(=O)N[C@H](CCC(N)=O)C(=O)N[C@@H](C(=O)N[C@H](C(=O)N[C@@H](CO)C(=O)N[C@H]1C(=O)N[C@@H](C)C(=O)N[C@@H](CCCNC(=N)N)C(=O)N[C@@H]([C@@H](C)CC)C(=O)O[C@H]1C)[C@@H](C)CC)[C@@H](C)CC [compound 10, N-Tmg-D-Phe-Arg10-teixobactin] | – | 256 µg/mL | 64 µg/mL | – | –
N-Dec-D-Phe-Arg10-teixobactin [compound 8] | – | – | – | poor solubility in water | solubility in solvent systems compatible with reverse-phase chromatography [5]: not possible to dissolve
Teixobactin | – | – | – | – | Minimum Inhibitory Concentration (MIC) B. subtilis ATCC 6051 [6]: 0.06 µg/mL; Minimum Inhibitory Concentration (MIC) S. aureus ATCC 29213 [7]: 0.25 µg/mL; Minimum Inhibitory Concentration (MIC) P. aerug ATCC 27853 [8]: >32 µg/mL; Minimum Inhibitory Concentration (MIC) E. coli ATCC 25922 [9]: 25 µg/mL
